According to US20240398781A1, “SPIROCYCLIC CYCLIC MODULATORS OF CHOLESTEROL BIOSYNTHESIS AND THEIR USE FOR PROMOTING REMYELINATION” (GENENTECH, INC., priority 2021, published 2024):

What was measured:
human EBP = human EBP (Homo sapiens (Human), UniProt Q15125); test: Competition binding assay (SPA, [3H]-Ifenprodil) to determine compound affinity to EBP; conditions: [3H]-Ifenprodil 10 nM, HEK293 membrane overexpressing human EBP, Ki=IC50/(1+[L]/Kd); read-out: hEBP SPA Ki
Experimental: Membrane preparation: To examine compound binding affinity to EBP, human EBP was overexpressed in human embryonic kidney 293 cells. Cell pellet was lysed in 10 times weight binding buffer (50 mM Tris, 5 mM MgCl2, 0.1 mM EDTA, lx protease inhibitor cocktail, pH 7.5) on ice by using a dounce homogenizer. The solution was centrifuged at 25,000 g for 50 min at 4° C. The membrane pellet was re-suspended in binding buffer and run through a 25 5/8 gauge needle. After checking the concentration by Bradford assay, the whole cell membrane solution was adjusted to 20 mg/mL and stored at −80° C.
This binding solution was centrifuged at 400 g for 5 minutes to collect the bead/membrane mixture. After re-suspending the pellet in binding buffer at the same calculated volume with 0.01% BSA (Sigma A1933), the bead/membrane mixture was added in 384-well low-binding surface plate (PerkinElmer Cat #6057480) at 25 μl/well. Radioligand at different concentrations with and without the non-radio-labeled same ligand 5 uM (for nonspecific and total signal, respectively) was added to bring final volume to 50 µl/well with DMSO concentration at 0.1%. At equilibrium (3 hours after ligand addition), radiometric signal CPM was counted by using a Microbeta2 microplate counter (Perkinelmer).
Competition binding assay to determine compound affinity: The same conditions of the radioligand Kd study were used for compound single dose percentage inhibition and equilibrium dissociation constant Ki examinations, except 50 nL compound DMSO stock was pre-added in 384-well low-binding surface plate (PerkinElmer Cat #6057480) by Echo 550 (Labcyte) to reach the final concentration for single dose test at 1 uM, and dose response test from 0.06 nM to 5 uM (8 dose, 5 times dilution). A pre-incubated bead/membrane mixture was added in compound plate at 0.3 mg beads and […] membrane per well. […] At equilibrium (3 hours after ligand addition), radiometric signal was counted as described above. The percentage inhibition of compound at each testing concentration was calculated by normalizing each condition's CPM readout to full block (5 uM non-radiolabeled ligand) and non-block (DMSO) control conditions. Compound binding inhibition IC50 was determined by nonlinear regression fitting of percentage inhibition plot against compound concentration. Compound Ki was calculated from the equation Ki=IC50/(1+[L]/Kd), which [L] was radioligand concentration used in assay. All tests had N bigger or equal to 2.

[1] = tested on: EBP (zymostenol accumulation in EpiSC-derived OPCs); test: GC/MS-based sterol profiling, zymostenol accumulation in OPCs; type: cell-based, mouse; conditions: Mus musculus, 24 h, EpiSC-derived OPCs, 24 hr treatment, 8 doses from 0.15 nM to 333 nM; read-out: Zymostenol GCMS EC50
Summary of the method: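 EpiSC-derived OPCs (100,000/well) were treated 24 h in N2B27 without growth factors. Sterols were TMS-derivatized and analysed by GC/MS full-scan EI, quantified against cholesterol-d7. Zymostenol was normalized to the level after 24 h with 100 nM positive control reference.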

Chain of human EBP (Q15125 whole entry): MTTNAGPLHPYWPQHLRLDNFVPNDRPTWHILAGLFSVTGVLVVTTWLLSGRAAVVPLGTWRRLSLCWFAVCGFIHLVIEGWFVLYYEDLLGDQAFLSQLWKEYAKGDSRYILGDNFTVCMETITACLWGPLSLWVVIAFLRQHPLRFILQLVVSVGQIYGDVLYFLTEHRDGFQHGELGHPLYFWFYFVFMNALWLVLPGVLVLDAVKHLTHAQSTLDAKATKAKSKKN

Structure (SMILES) | Ki (human EBP) [nM] | EC50 [1] [nM]
Cc1cc(C(F)(F)F)cnc1N1CCC(N2CCC3(C2)CS(=O)(=O)C3)CC1 [Compound 7, 6-(1-(3-methyl-5-(trifluoromethyl)pyridin-2-yl)piperidin-4-yl)-2-thia-6-azaspiro[3.4]octane 2,2-dioxide] | 10 | 34
Cc1cc(C(F)(F)F)ncc1N1CCC(N2CCC3(C2)CS(=O)(=O)C3)CC1 [Compound 28, 6-(1-(4-Methyl-6-(trifluoromethyl)pyridin-3-yl)piperidin-4-yl)-2-thia-6-azaspiro[3.4]octane 2,2-dioxide] | 33 | 7.5
CC(C)n1nc(-c2cncc(OC(F)F)c2)cc1[C@H]1CC[C@H](N2CCC3(C2)CS(=O)(=O)C3)CC1 [Compound 33A, 6-((1r,4r)-4-(3-(5-(Difluoromethoxy)pyridin-3-yl)-1-isopropyl-1H-pyrazol-5-yl)cyclohexyl)-2-thia-6-azaspiro[3.4]octane 2,2-dioxide] | 37 | 7.6
Cn1nc(C(F)(F)F)cc1[C@H]1CC[C@@H](N2CC[C@]3(CCS(=O)(=O)C3)C2)CC1 (single isomer, unassigned) [38A*] | 27 | 49
CC(C)n1nc(C(F)(F)F)cc1[C@H]1CC[C@@H](N2CCC3(C2)CS(=O)(=O)C3)CC1 [Compound 8B, 6-((1s,4s)-4-(1-isopropyl-3-(trifluoromethyl)-1H-pyrazol-5-yl)cyclohexyl)-2-thia-6-azaspiro[3.4]octane 2,2-dioxide] | 21 | 26
O=S1(=O)CC2(CCN([C@H]3CC[C@H](c4cc(C(F)(F)F)nn4C4CCC4)CC3)C2)C1 [Compound 23B, 6-((1r,4r)-4-(1-Cyclobutyl-3-(trifluoromethyl)-1H-pyrazol-5-yl)cyclohexyl)-2-thia-6-azaspiro[3.4]octane 2,2-dioxide] | 21 | 9
O=S1(=O)CC2(CCN([C@@H]3CC[C@@H](c4ccc(C(F)(F)F)nc4)C3)C2)C1 (single isomer, unassigned) [Compound 11B, (Trans)-6-(3-(6-(Trifluoromethyl)pyridin-3-yl)cyclopentyl)-2-thia-6-azaspiro[3.4]octane 2,2-dioxide] | 42 | 7.3
CCn1nc([C@H]2CC[C@H](N3CCC4(C3)CS(=O)(=O)C4)CC2)cc1C(F)(F)F [Compound 16, 6-((1r,4r)-4-(1-Ethyl-5-(trifluoromethyl)-1H-pyrazol-3-yl)cyclohexyl)-2-thia-6-azaspiro[3.4]octane 2,2-dioxide] | 36 | 12
Cc1cc(C(F)(F)F)ncc1[C@H]1CC[C@@H](N2CCC3(C2)CS(=O)(=O)C3)CC1 [Compound 21A, 6-((1s,4s)-4-(4-Methyl-6-(trifluoromethyl)pyridin-3-yl)cyclohexyl)-2-thia-6-azaspiro[3.4]octane 2,2-dioxide] | 23 | 12
O=S1(=O)CC2(CCN([C@@H]3CCCN(c4ccc(C(F)(F)F)cc4)C3)C2)C1 (single isomer, unassigned) [22A*] | 34 | 2
O=S1(=O)CC2(CCN([C@H]3CC[C@@H](c4cc(C(F)(F)F)nn4C4CC4)CC3)CC2)C1 [Compound 40A, 7-((1r,4r)-4-(1-cyclopropyl-3-(trifluoromethyl)-1H-pyrazol-5-yl)cyclohexyl)-2-thia-7-azaspiro[3.5]nonane 2,2-dioxide] | 32 | 4
O=S1(=O)CC2(CCN([C@H]3CC[C@@H](c4ccc(C(F)(F)F)nc4)C3)C2)C1 (single isomer, unassigned) [Compound 11A, (Cis)-6-(3-(6-(Trifluoromethyl)pyridin-3-yl)cyclopentyl)-2-thia-6-azaspiro[3.4]octane 2,2-dioxide] | 54 | 30
CC(C)n1cc(C(F)(F)F)nc1[C@H]1CC[C@H](N2CCC3(C2)CS(=O)(=O)C3)C1 (single isomer, unassigned) [20A*] | 280 | 240
O=S1(=O)CC2(CCN([C@@H]3CCN(c4ccc(C(F)(F)F)nc4)C3)C2)C1 (single isomer, unassigned) [9B*] | 170 | 394
